Test [1] concerns the target T1, NIH3T3 cells expressing the full length KDR receptor (Homo sapiens, UniProt P35968).
T1 construct: NIH3T3 cells expressing the full length KDR receptor; expressed in transfected cells; host or cells: NIH3T3 cells (G418 selection)
Nature of the test: Cell mechanistic assay - Inhibition of 3T3 KDR phosphorylation. It counts as cell-based. The note with it: VEGF (30 ng / ml) for 10 minutes after 30 minutes with compound; KDR phosphotyrosine ELISA. As for the experimental part:
NIH3T3 cells expressing the full length KDR receptor were grown in DMEM (Life Technologies, Inc., Grand Island, NY) supplemented with 10% newborn calf serum, low glucose, 25 mM /L sodium pyruvate, pyridoxine hydrochloride and 0.2 mg/ ml of G418 (Life Technologies Inc., Grand Island, NY). The cells were maintained in collagen I-coated T75 flasks (Becton Dickinson Labware, Bedford, MA) in a humidified 5% CO2 atmosphere at 37°C.
Fifteen thousand cells were plated into each well of a collagen I-coated 96-well plate in the DMEM growth medium. Six hours later, the cells were washed and the medium was replaced with DMEM without serum. After overnight culture to quiesce the cells, the medium was replaced by Dulbecco's phosphate-buffered saline (Life Technologies Inc., Grand Island, NY) with 0.1% bovine albumin (Sigma Chemical Co., St Louis, MO). After adding various concentrations (0-300 nM) of test compounds to the cells in 1% final concentration of DMSO, the cells were incubated at room temperature for 30 minutes. The cells were then treated with VEGF (30 ng / ml) for 10 minutes at room temperature. Following VEGF stimulation, the buffer was removed and the cells were lysed by addition of 150 µl of extraction buffer (50 mM Tris, pH 7.8, supplemented with 10% glycerol, 50 mM BGP, 2 mM EDTA, 10 mM NaF, 0.5 mM NaVO4, and 0.3% TX-100) at 4°C for 30 minutes.
To assess receptor phosphorylation, 100 microliters of each cell lysate was added to the wells of an ELISA plate precoated with 300 ng of antibody C20 (Santa Cruz Biotechnology, Inc., Santa Cruz , CA). Following a 60-minute incubation, the plate was washed and bound KDR was probed for phosphotyrosine using an anti-phosphotyrosine mAb clone 4G10 (Upstate Biotechnology, Lake Placid, NY). The plate was washed and wells were incubated with anti-mouse IgG/HRP conjugate (Amersham International plc, Buckinghamshire, England) for 60 minutes. Wells were washed and phosphotyrosine was quantitated by addtion of 100 µl per well of 3,3',5,5' tetramethylbenzidine (Kirkegaard and Perry, TMB Microwell 1 Component peroxidase substrate) solution. Color development was arrested by the addition of 100 µl 1% HCl based stop solution (Kirkegaard and Perry, TMB 1 Component Stop Solution).
Optical densities (OD) were determined spectrophotometrically at 450 nm in a 96-well plate reader (SpectraMax 250, Molecular Devices). Background (no VEGF added) OD values were subtracted from all ODs and percent inhibition was calculated according to the equation: % Inhibition =((OD(VEGF control) - OD(with test compound)) X 100)/(OD(VEGF control) - OD(no VEGF added)) [formula]
IC50s were determined with a least squares analysis program using compound concentration versus percent inhibition. Compounds that have IC50 < 20 nM in this assay include those of Examples 2, 6, 7, 11, 15 and 16. Compounds that have IC50 values between 20 nM and 50 nM include those of examples 1, 4, 5, 8, 10, 12, 13 and 14. Those that have measured IC50 values > 50 nM include those of examples 9 and 21.
On the technique in general: ELISA stands for enzyme-linked immunosorbent assay.

Test [2] addresses T2, cytosolic kinase domain of KDR kinase (Homo sapiens, UniProt P35968).
T2 construct: The cytosolic kinase domain of KDR kinase was expressed as a 6His fusion protein in Sf9 insect cells; 6His; made in house; host or cells: Sf9 insect cells
Nature of the test: KDR Assay (ELISA, phosphorylation of poly(Glu4;Tyr1)). It is filed as biochemical. The note with it: 3.3 µM ATP, 60 minutes at room temperature, 30 ng KDR kinase domain. As for the experimental part:
The cytosolic kinase domain of KDR kinase was expressed as a 6His fusion protein in Sf9 insect cells. The KDR kinase domain fusion protein was purified over a Ni^++ chelating column. Ninety-six well ELISA plates were coated with 5 µg poly(Glu4;Tyr1) (Sigma Chemical Co., St Louis, MO) in 100 µl HEPES buffer (20 mM HEPES, pH 7.5, 150 mM NaCl, 0.02% Thimerosal) at 4° overnight. Before use, the plate was washed with HEPES, NaCl buffer and the plates were blocked with 1% BSA, 0.1% Tween 20 in HEPES, NaCl buffer.
Test compounds were serially diluted in 100% DMSO from 4 mM to 0.12 µM in half-log dilutions. These dilutions were further diluted twenty fold in H2O to obtain compound solutions in 5% DMSO. Following loading of the assay plate with 85 µl of assay buffer (20 mM HEPES, pH 7.5, 100 mM KCl, 10 mM MgCl2, 3 mM MnCl2, 0.05% glycerol, 0.005% Triton X-100, 1 mM -mercaptoethanol, with or without 3.3 µM ATP), 5 µl of the diluted compounds were added to a final assay volume of 100 µl. Final concentrations were between 10 µM, and 0.3 nM in 0.25% DMSO. The assay was initiated by the addition of 10µl (30 ng) of KDR kinase domain.
The assay was incubated with test compound or vehicle alone with gentle agitation at room temperature for 60 minutes. The wells were washed and phosphotyrosines (PY) were probed with an anti-phosphotyrosine (PY), mAb clone 4G10 (Upstate Biotechnology, Lake Placid, NY). PY/anti-PY complexes were detected with an anti-mouse IgG/HRP conjugate (Amersham International plc, Buckinghamshire, England). Phosphotyrosine was quantitated by incubating with 100 µl 3, 3', 5, 5' tetramethylbenzidine solution (Kirkegaard and Perry, TMB Microwell 1 Component peroxidase substrate). Color development was arrested by the addition of 100 µl 1% HCl-based stop solution (Kirkegaard and Perry, TMB I Component Stop Solution).
Optical densities were determined spectrophotometrically at 450 nm in a 96-well plate reader, SpectraMax 250 (Molecular Devices). Background (no ATP in assay) OD values were subtracted from all ODs and the percent inhibition was calculated according to the equation: % Inhibition =((OD(vehicle control) - OD(with compound)) X 100)/(OD(vehicle control) - OD(no ATP added)) [formula]
The IC50 values were determined with a least squares analysis program using compound concentration versus percent inhibition. Compounds that have IC50 < 100 nM in this assay include those of Examples 1, 2, 4, 5, 6, 7, 10, 11, 12, 13, 14, 15, 16 and 23. Compounds that have IC50 values between 100 nM and 1,000 nM include those of examples 8, 9 and 22. Those that have measured IC50 values > 1,000 nM include those of examples 3, 17, 18 and 21.

The structures appear in SMILES notation. pIC50: −log10 of the molar value.

T2 sequence (P35968 834-1162 limits assumed): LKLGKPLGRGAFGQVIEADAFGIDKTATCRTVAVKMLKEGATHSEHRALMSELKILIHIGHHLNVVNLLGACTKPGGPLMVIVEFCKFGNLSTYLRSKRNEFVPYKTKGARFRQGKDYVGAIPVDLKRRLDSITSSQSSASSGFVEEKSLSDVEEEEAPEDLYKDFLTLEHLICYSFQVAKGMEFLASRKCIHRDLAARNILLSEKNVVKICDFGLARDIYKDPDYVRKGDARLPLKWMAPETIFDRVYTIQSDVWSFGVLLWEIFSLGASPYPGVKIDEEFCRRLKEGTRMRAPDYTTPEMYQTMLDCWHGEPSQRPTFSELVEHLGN
T1 sequence (P35968 20-1356): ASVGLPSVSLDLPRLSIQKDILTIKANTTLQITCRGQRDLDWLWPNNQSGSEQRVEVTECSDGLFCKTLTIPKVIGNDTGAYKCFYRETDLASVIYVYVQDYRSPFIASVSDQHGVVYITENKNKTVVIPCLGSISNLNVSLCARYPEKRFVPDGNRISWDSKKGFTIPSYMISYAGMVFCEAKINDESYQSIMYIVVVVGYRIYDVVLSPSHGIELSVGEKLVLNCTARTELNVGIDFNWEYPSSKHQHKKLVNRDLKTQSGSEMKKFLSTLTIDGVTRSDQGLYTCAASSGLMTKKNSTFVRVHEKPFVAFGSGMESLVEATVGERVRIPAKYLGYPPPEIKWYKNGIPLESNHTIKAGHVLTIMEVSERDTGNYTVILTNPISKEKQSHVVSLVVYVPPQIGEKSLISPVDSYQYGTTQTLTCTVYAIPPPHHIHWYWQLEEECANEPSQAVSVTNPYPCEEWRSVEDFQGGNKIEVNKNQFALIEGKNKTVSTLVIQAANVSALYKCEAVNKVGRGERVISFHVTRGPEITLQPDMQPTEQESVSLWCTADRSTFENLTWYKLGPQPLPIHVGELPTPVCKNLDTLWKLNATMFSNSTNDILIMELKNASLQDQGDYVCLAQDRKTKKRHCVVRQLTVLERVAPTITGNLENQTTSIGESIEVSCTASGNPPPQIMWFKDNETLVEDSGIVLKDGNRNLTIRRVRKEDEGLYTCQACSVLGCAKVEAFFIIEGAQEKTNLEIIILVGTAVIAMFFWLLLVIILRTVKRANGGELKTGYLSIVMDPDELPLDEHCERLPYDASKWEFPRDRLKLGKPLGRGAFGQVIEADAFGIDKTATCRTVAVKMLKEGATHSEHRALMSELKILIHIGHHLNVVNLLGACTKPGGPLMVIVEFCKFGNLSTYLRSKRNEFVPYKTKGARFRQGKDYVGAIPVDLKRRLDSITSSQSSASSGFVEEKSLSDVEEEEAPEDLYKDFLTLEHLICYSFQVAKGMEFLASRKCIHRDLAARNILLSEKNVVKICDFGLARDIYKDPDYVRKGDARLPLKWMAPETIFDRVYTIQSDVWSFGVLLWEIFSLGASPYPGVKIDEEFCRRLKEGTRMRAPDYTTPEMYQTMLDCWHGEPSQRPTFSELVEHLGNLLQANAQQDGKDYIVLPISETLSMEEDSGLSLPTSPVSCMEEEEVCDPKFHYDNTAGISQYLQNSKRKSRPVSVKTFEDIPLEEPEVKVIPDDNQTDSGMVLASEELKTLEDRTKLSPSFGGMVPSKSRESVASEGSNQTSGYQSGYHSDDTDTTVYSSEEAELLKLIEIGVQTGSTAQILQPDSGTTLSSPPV

For orientation: pIC50 means −log10 of the IC50, conventionally taken in molar units. In the case of `CNC(=O)c1cc(Cc2nnc(Nc3ccc(Cl)cc3)c3ccccc23)ccn1` [Example 1, 4-[4-(4-Chlorophenylamino)phthalazin-1-ylmethyl]pyridin-2-yl carboxylic acid methylamide], the pIC50 is 7.30 to 7.70 in test [1] and > 7.00 in test [2].

The values above are taken from EP1208096B1, “SUBSTITUTED PYRIDAZINES AND FUSED PYRIDAZINES WITH ANGIOGENESIS INHIBITING ACTIVITY” (Bayer Corporation, priority 1999, dated 2001).
